Experiments:
Assay type in all cases: functional
[1] = Growth inhibition of human SNB75 cells at 10 uM after 48 hrs by sulforhodamine B assay; details: SNB-75, 48 h, values are per cent of control
U-251 = assay: Growth inhibition of human U251 cells at 10 uM after 48 hrs by sulforhodamine B assay; details: U-251, 48 h, values are per cent of control
[2] = Growth inhibition of human LOXIMVI cells at 10 uM after 48 hrs by sulforhodamine B assay; details: LOX IMVI, values are per cent of control
M14 = assay: Growth inhibition of human M14 cells at 10 uM after 48 hrs by sulforhodamine B assay; details: M14, 48 h, values are per cent of control
MDA-MB-435 = assay: Growth inhibition of human MDA-MB-435 cells at 10 uM after 48 hrs by sulforhodamine B assay; details: MDA-MB-435, 48 h, values are per cent of control
SK-MEL-2 = assay: Growth inhibition of human SK-MEL-2 cells at 10 uM after 48 hrs by sulforhodamine B assay; details: SK-MEL-2, 48 h, values are per cent of control
SK-MEL-28 = assay: Growth inhibition of human SK-MEL-28 cells at 10 uM after 48 hrs by sulforhodamine B assay; details: SK-MEL-28, 48 h, values are per cent of control
SK-MEL-5 = assay: Growth inhibition of human SK-MEL-5 cells at 10 uM after 48 hrs by sulforhodamine B assay; details: SK-MEL-5, 48 h, values are per cent of control
[3] = Growth inhibition of human OVCAR4 cells at 10 uM after 48 hrs by sulforhodamine B assay; details: OVCAR-4, 48 h, values are per cent of control
[4] = Growth inhibition of human OVCAR5 cells at 10 uM after 48 hrs by sulforhodamine B assay; details: OVCAR-5, 48 h, values are per cent of control
[5] = Growth inhibition of human OVCAR8 cells at 10 uM after 48 hrs by sulforhodamine B assay; details: OVCAR-8, 48 h, values are per cent of control
[6] = Growth inhibition of human NCI-ADR-RES cells at 10 uM after 48 hrs by sulforhodamine B assay; details: values are per cent of control
[7] = Growth inhibition of human SKOV3 cells at 10 uM after 48 hrs by sulforhodamine B assay; details: SK-OV-3, 48 h, values are per cent of control
786-0 = assay: Growth inhibition of human 786-0 cells at 10 uM after 48 hrs by sulforhodamine B assay; details: 786-0, 48 h, values are per cent of control
A498 = assay: Growth inhibition of human A498 cells at 10 uM after 48 hrs by sulforhodamine B assay; details: A498, 48 h, values are per cent of control
ACHN = assay: Growth inhibition of human ACHN cells at 10 uM after 48 hrs by sulforhodamine B assay; details: values are per cent of control
[8] = Growth inhibition of human Caki1 cells at 10 uM after 48 hrs by sulforhodamine B assay; details: CAKI-1, 48 h, values are per cent of control
[9] = Growth inhibition of human RXF393 cells at 10 uM after 48 hrs by sulforhodamine B assay; details: RXF 393, 48 h, values are per cent of control
SN12C = assay: Growth inhibition of human SN12C cells at 10 uM after 48 hrs by sulforhodamine B assay; details: values are per cent of control
[10] = Growth inhibition of human TK10 cells at 10 uM after 48 hrs by sulforhodamine B assay; details: TK-10, 48 h, values are per cent of control
[11] = Growth inhibition of human UO31 cells at 10 uM after 48 hrs by sulforhodamine B assay; details: UO-31, 48 h, values are per cent of control
[12] = Growth inhibition of human DU145 cells at 10 uM after 48 hrs by sulforhodamine B assay; details: DU-145, 48 h, values are per cent of control
MDA-MB-231 = assay: Growth inhibition of human MDA-MB-231 cells at 10 uM after 48 hrs by sulforhodamine B assay; details: MDA-MB-231, 48 h, values are per cent of control
[13] = Growth inhibition of human BT549 cells at 10 uM after 48 hrs by sulforhodamine B assay; details: BT-549, 48 h, values are per cent of control
MDA-MB-468 = assay: Growth inhibition of human MDA-MB-468 cells at 10 uM after 48 hrs by sulforhodamine B assay; details: MDA-MB-468, 48 h, values are per cent of control
K562 = assay: Growth inhibition of human K562 cells at 10 uM after 48 hrs by sulforhodamine B assay; details: K562, 48 h, values are per cent of control
A549 = assay: Growth inhibition of human A549/ATCC cells at 10 uM after 48 hrs by sulforhodamine B assay; details: A549, 48 h, values are per cent of control
[14] = Growth inhibition of human HOP62 cells at 10 uM after 48 hrs by sulforhodamine B assay; details: HOP-62, 48 h, values are per cent of control
NCI-H226 = assay: Growth inhibition of human NCI-H226 cells at 10 uM after 48 hrs by sulforhodamine B assay; details: NCI-H226, 48 h, values are per cent of control
NCI-H322M = assay: Growth inhibition of human NCI-H322M cells at 10 uM after 48 hrs by sulforhodamine B assay; details: values are per cent of control
NCI-H460 = assay: Growth inhibition of human NCI-H460 cells at 10 uM after 48 hrs by sulforhodamine B assay; details: NCI-H460, 48 h, values are per cent of control
[15] = Growth inhibition of human COLO205 cells at 10 uM after 48 hrs by sulforhodamine B assay; details: COLO 205, 48 h, values are per cent of control
[16] = Growth inhibition of human HCT116 cells at 10 uM after 48 hrs by sulforhodamine B assay; details: HCT-116, 48 h, values are per cent of control
HT-29 = assay: Growth inhibition of human HT-29 cells at 10 uM after 48 hrs by sulforhodamine B assay; details: HT-29, 48 h, values are per cent of control
KM12 = assay: Growth inhibition of human KM12 cells at 10 uM after 48 hrs by sulforhodamine B assay; details: KM12, 48 h, values are per cent of control
[17] = Growth inhibition of human SW620 cells at 10 uM after 48 hrs by sulforhodamine B assay; details: SW-620, 48 h, values are per cent of control
[18] = Growth inhibition of human SF268 cells at 10 uM after 48 hrs by sulforhodamine B assay; details: SF-268, 48 h, values are per cent of control
[19] = Growth inhibition of human SF295 cells at 10 uM after 48 hrs by sulforhodamine B assay; details: SF-295, 48 h, values are per cent of control
[20] = Growth inhibition of human SF539 cells at 10 uM after 48 hrs by sulforhodamine B assay; details: SF-539, 48 h, values are per cent of control
[21] = Growth inhibition of human SNB19 cells at 10 uM after 48 hrs by sulforhodamine B assay; details: SNB-19, 48 h, values are per cent of control

SMILES	growth, % of control at 10 µM [1] [%]	growth, % of control at 10 µM (U-251) [%]	growth, % of control at 10 µM [2] [%]	growth, % of control at 10 µM (M14) [%]	growth, % of control at 10 µM (MDA-MB-435) [%]	growth, % of control at 10 µM (SK-MEL-2) [%]	growth, % of control at 10 µM (SK-MEL-28) [%]	growth, % of control at 10 µM (SK-MEL-5) [%]	growth, % of control at 10 µM [3] [%]	growth, % of control at 10 µM [4] [%]	growth, % of control at 10 µM [5] [%]	growth, % of control at 10 µM [6] [%]	growth, % of control at 10 µM [7] [%]	growth, % of control at 10 µM (786-0) [%]	growth, % of control at 10 µM (A498) [%]	growth, % of control at 10 µM (ACHN) [%]	growth, % of control at 10 µM [8] [%]	growth, % of control at 10 µM [9] [%]	growth, % of control at 10 µM (SN12C) [%]	growth, % of control at 10 µM [10] [%]	further results
COc1ccc(/C=C(\C#N)c2ccc3c(c2)OCO3)cn1	57	84.5	95.6	91.1	37.2	93.2	95.1	84.1	81.6	95	90.1	86	83.1	107	70.8	93.4	75.3	86.5	92.6	80.4	growth, % of control at 10 µM [11]: 82.3%; growth, % of control at 10 µM [12]: 97.4%; growth, % of control at 10 µM (MDA-MB-231): 75.6%; growth, % of control at 10 µM [13]: 81%; growth, % of control at 10 µM (MDA-MB-468): 60.8%; growth, % of control at 10 µM (K562): 64.2%; growth, % of control at 10 µM (A549): 77.4%; growth, % of control at 10 µM [14]: 88.1%; growth, % of control at 10 µM (NCI-H226): 93.3%; growth, % of control at 10 µM (NCI-H322M): 98.3%; growth, % of control at 10 µM (NCI-H460): 95.2%; growth, % of control at 10 µM [15]: 97.6%; growth, % of control at 10 µM [16]: 82.6%; growth, % of control at 10 µM (HT-29): 63.8%; growth, % of control at 10 µM (KM12): 63.9%; growth, % of control at 10 µM [17]: 86.1%; growth, % of control at 10 µM [18]: 91%; growth, % of control at 10 µM [19]: 89.3%; growth, % of control at 10 µM [20]: 83.1%; growth, % of control at 10 µM [21]: 96.4%
N#C/C(=C\c1cccnc1Cl)c1ccc2c(c1)OCO2	102	95.8	103	94.9	97.1	98.9	113	92.2	100	106	56.2	101	103	94	90.7	109	103	98.3	91.7	106	growth, % of control at 10 µM [11]: 87.6%; growth, % of control at 10 µM [12]: 115%; growth, % of control at 10 µM (MDA-MB-231): 99.8%; growth, % of control at 10 µM [13]: 88.5%; growth, % of control at 10 µM (MDA-MB-468): 93.7%; growth, % of control at 10 µM (K562): 113%; growth, % of control at 10 µM (A549): 103%; growth, % of control at 10 µM [14]: 103%; growth, % of control at 10 µM (NCI-H226): 98.9%; growth, % of control at 10 µM (NCI-H322M): 97%; growth, % of control at 10 µM (NCI-H460): 102%; growth, % of control at 10 µM [15]: 112%; growth, % of control at 10 µM [16]: 94%; growth, % of control at 10 µM (HT-29): 106%; growth, % of control at 10 µM (KM12): 109%; growth, % of control at 10 µM [17]: 94.8%; growth, % of control at 10 µM [18]: 109%; growth, % of control at 10 µM [19]: 110%; growth, % of control at 10 µM [20]: 99.8%; growth, % of control at 10 µM [21]: 101%

Reference: ChEMBL document CHEMBL3792365, “Dioxol and dihydrodioxin analogs of 2- and 3-phenylacetonitriles as potent anti-cancer agents with nanomolar activity against a variety of human cancer cells” (2016)
